Laboratory results as given in US20100113523A1 (priority 2008, published 2010).

Experiments:
tryptase enzyme = target: T1, tryptase enzyme (Homo sapiens, UniProt P20231); test: Tryptase inhibition (cleavage of tosyl-gly-pro-lys-pNA, absorbance at 405 nm); type: biochemical; conditions: relative to controls; 2 h at 37° C.
T1 construct: purchased Millipore Inc., Westbury, Mass
Description: Tryptase activity was determined by monitoring the production of chromophore p-nitroaniline (pNA) generated by the cleavage of tosyl-gly-pro-lys-pNA by the tryptase enzyme according to the manufacturer's protocol (Millipore Inc., Westbury, Mass.). In a 96-well format, 10 μL of tryptase was added to 10 μL of sample, followed by 20 μL of tosyl-gly-pro-lys-pNA and 160 μL of 1× reaction buffer and incubated for 2 h at 37° C. After the incubation, absorbance at 405 nm was measured in each well using a Tecan M200 microplate reader.

[1] = Pharmacokinetic analysis in humans (serum and urine, DART TOF-MS); type: in vivo; conditions: human, ingested in a mixture
Description: Five healthy consenting female adults ranging in age from 23 to 57 were took diets free of flavonoids and any NSAIDs. A certified individual collected blood samples at several time intervals between 0 and 480 min after compounds of the present invention were ingested in a mixture. Immediately after the time zero blood samples were collected, a single 100 mg dose of the composition was administered as a lozenge. Blood samples were handled with approved protocols and precautions, centrifuged to remove cells and the serum fraction was collected and frozen. Blood was not treated with heparin to avoid any analytical interference. Urine samples were collected from the same five subjects on a time course (0 to 8 h).
The cells were removed from the blood samples by centrifugation and the serum was collected. Serum samples were prepared for DART TOF-MS analysis by extraction with an equal volume of neat ethanol (USP) to minimize background of proteins, peptides, and polysaccharides present in serum. The ethanol extract was centrifuged for 10 min at 4° C., the supernatant was removed, concentrated to 200 μL volume, and 50 μL of an internal standard was added. Urine samples were not treated and used directly for DART TOF-MS. DART TOF-MS analyses were conducted as described above.

T1 sequence (P20231 31-275): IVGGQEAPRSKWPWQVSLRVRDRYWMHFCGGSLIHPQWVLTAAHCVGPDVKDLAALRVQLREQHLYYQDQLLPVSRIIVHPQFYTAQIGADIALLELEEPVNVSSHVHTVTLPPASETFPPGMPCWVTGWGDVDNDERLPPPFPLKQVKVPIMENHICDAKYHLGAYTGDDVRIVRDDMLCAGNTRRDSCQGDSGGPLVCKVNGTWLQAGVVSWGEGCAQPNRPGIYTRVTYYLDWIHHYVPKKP

Row | IC50 (tryptase enzyme) [µM] | time to appearance in the bloodstream (serum) after ingestion ([1]; single 100 mg lozenge) [min] | time to appearance in urine after ingestion ([1]; single 100 mg lozenge) [h] | time present in the serum post-ingestion ([1]; single 100 mg lozenge, sampling 0 to 480 min) | persistence in the urine post-ingestion ([1]; urine collected 0 to 8 h) | Structure (SMILES)
1 | 789 | – | – | – | – | CCCCCC/C=C/CN(c1ccc(C)cc1)c1ccc(SSc2ccc(N(C/C=C/CCCCCC)c3ccc(C)cc3)nc2)cn1 [compound [7]]
2 | – | ≤ 10 | ≤ 1 | up to 480 min | up to 8 h | CCCCCC/C=C/CN(c1ccc(C)cc1)c1ccc(S)cn1 [compound (V)]
